Conditions: 101.33 kPa, Liquid, transient hot wire

CCO [ethanol]
Conditions	thermal conductivity [W/m/K]
276.51 K	0.1719
280.8 K	0.1687
284.27 K	0.1699
290.37 K	0.1677
293.43 K	0.1658

CCCCCCCCCC(=O)OCC [ethyl decanoate]
Conditions	thermal conductivity [W/m/K]
270 K	0.1483
279.98 K	0.1463
289.85 K	0.1442
299.64 K	0.1422
309.6 K	0.14
319.72 K	0.1375
329.53 K	0.1355
339.49 K	0.1332
349.51 K	0.1307
359.46 K	0.1284
369.3 K	0.1266
374.44 K	0.1248
379.49 K	0.1238
389.25 K	0.1214
400.44 K	0.1195

CCCCCCCCCCCC(=O)OCC [ethyl dodecanoate]
Conditions	thermal conductivity [W/m/K]
274.73 K	0.151
284.69 K	0.1489
294.56 K	0.1471
304.59 K	0.1446
314.47 K	0.1424
324.41 K	0.1399
334.28 K	0.1377
344.09 K	0.1362
349.21 K	0.1343
354.09 K	0.1334
359.09 K	0.1321
369.13 K	0.1296
379.1 K	0.1275
389.1 K	0.1253
400.08 K	0.1229

CCCCCCC(=O)OCC [ethyl heptanoate]
Conditions	thermal conductivity [W/m/K]
250.38 K	0.1482
260.21 K	0.1463
270.16 K	0.1441
280.02 K	0.1414
289.93 K	0.1397
299.84 K	0.137
309.9 K	0.1343
319.73 K	0.1321
329.73 K	0.1294
337.72 K	0.127
341.71 K	0.1259
347.65 K	0.1251
353.6 K	0.1235
363.5 K	0.121
373.51 K	0.1183
383.64 K	0.1155
393.46 K	0.1139

CCCCCCCC(=O)OCC [ethyl octanoate]
Conditions	thermal conductivity [W/m/K]
254.76 K	0.1484
264.72 K	0.1462
274.7 K	0.144
284.63 K	0.1422
294.53 K	0.1405
300.47 K	0.1387
307.05 K	0.1366
310.45 K	0.1356
320.37 K	0.1336
330.4 K	0.1312
340.34 K	0.1286
350.38 K	0.1268
360.32 K	0.1234
370.25 K	0.1211
380.17 K	0.1188
390.39 K	0.1167
400.37 K	0.1142

CCCCCCCCCCCCCC(=O)OCC [ethyl tetradecanoate]
Conditions	thermal conductivity [W/m/K]
290.64 K	0.1515
298.29 K	0.1501
307.33 K	0.1481
315.2 K	0.1465
324.22 K	0.1448
333.17 K	0.1426
340.99 K	0.1406
350.11 K	0.1383
359.07 K	0.137
367.97 K	0.1342
377.86 K	0.1326
389.06 K	0.1297
393.88 K	0.1286

O [water]
Conditions	thermal conductivity [W/m/K]
293.09 K	0.6056
299.55 K	0.613
309.83 K	0.6313
314.96 K	0.6399
319.56 K	0.6399
324.64 K	0.6492
332.53 K	0.6555
339.33 K	0.657
340.41 K	0.6654
349.41 K	0.6723

— the NIST ThermoML archive (doi:10.1016/j.fluid.2018.06.004)
